# Laboratory results as given in PubChem BioAssay AID1205 (EPA DSSTox, 2008).
# Calls of active or inactive are those of the source.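 How the source made its calls: active means tumour findings in long-term animal cancer tests in more than one sex, species or organ; inactive means no tumour finding and more than one negative test.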
# Assay: DSSTox (CPDBAS) Carcinogenic Potency Database Summary MultiCellCall Results
# Conditions: animal carcinogenicity bioassays, multi-cell call summary
# Summary of the method: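 ActivityScore sums 50 for multispecies, 30 for multisex and 20 for multisite positivity. Based on the most positive experiment per sex-species across standardised chronic rodent and other animal cancer tests.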
row,Compound,outcome
1,O=C(O)c1ccccc1-c1c2cc(I)c(=O)c(I)c-2oc2c(I)c(O)c(I)cc12,inactive; multisex inactive; multispecies inactive
2,CC/C(=C(\c1ccccc1)c1ccc(OCCN(C)C)cc1)c1ccccc1,active; multisite active; multisex active; multispecies active
3,O=NN1CCOCC1,active; multisite active; multisex active; multispecies active
4,O[C@H]([C@H](O)[C@@H](O)CBr)[C@H](O)CBr,active; multisite active; multisex active; multispecies active
5,CCCCN(N=O)C(N)=O,active; multisite active; multisex active
6,CC1SC(C)N(N=O)C(C)S1 (stereo not drawn),active; multisite active
7,O=C1NCCN1,inactive; multisex inactive
8,OC[P+](CO)(CO)CO,inactive; multisex inactive; multispecies inactive
9,CCN(CC)c1cc2oc3cc(=[N+](CC)CC)c(C)cc-3c(-c3ccc(S(=O)(=O)O)cc3S(=O)(=O)[O-])c2cc1C,inactive; multisex inactive
10,CCCCC(C)(O)C/C=C/[C@H]1[C@H](O)CC(=O)[C@@H]1CCCCCCC(=O)OC (stereo partly drawn),inactive; multisex inactive; multispecies inactive
11,C[C@H]([C@H](O)CCC(C)(C)O)[C@H]1CC[C@@]2(O)C3=CC(=O)[C@@H]4C[C@@H](O)[C@@H](O)C[C@]4(C)[C@H]3CC[C@]12C,active; multisite active; multisex active
12,CC(=O)CN(C)N=O,active; multisite active; multisex active
13,CC(=O)NNc1ccccc1,active; multisex active
14,CCCCCCCCCCCCN=C(N)N,inactive; multisex inactive
15,CC1(C)[C@@H](OC2O[C@H](C(=O)O)[C@@H](O)[C@H](O)[C@H]2O[C@H]2O[C@H](C(=O)O)[C@@H](O)[C@H](O)[C@H]2O)CC[C@]2(C)[C@H]3C(=O)C=C4[C@@H]5C[C@@](C)(C(=O)O)CC[C@]5(C)CC[C@@]4(C)[C@]3(C)CC[C@@H]12 (stereo partly drawn),inactive; multisex inactive
16,CCN=[N+](C)[O-],active; multisite active
17,Oc1ccccc1,inactive; multisex inactive; multispecies inactive
18,O=S(O)S(=O)(=O)O,inactive; multisex inactive
19,CN(C)CCN(Cc1cccs1)c1ccccn1,active; multisex active
20,Cc1cccc(Nc2cc(Cl)nc(SCC(=O)NCCO)n2)c1C,active; multisex active; multispecies active
21,C=CBr,active; multisite active; multisex active
22,O=C(O)[C@@H]1[C@H](C(=O)O)[C@@]2(Cl)C(Cl)=C(Cl)[C@]1(Cl)C2(Cl)Cl,active; multisite active; multisex active; multispecies active
23,Cc1ccc(Cl)cc1N,active; multisite active; multisex active
24,CN(C)C(=O)Cl,active; multisite active; multisex active; multispecies active
25,CCOC(=O)C1OC1(C)c1ccccc1 (stereo not drawn),inactive; multisex inactive

row,Compound,outcome
1,CCNC(=S)NCC,active; multisex active
2,CCC(Br)(CC)C(=O)NC(N)=O,inactive; multisex inactive; multispecies inactive
3,O=C(O)C(Cl)(Cl)Cl,active; multisex active
4,O1[As]2O[As]3O[As]1O[As](O2)O3,inactive; multisex inactive
5,CCCCOC(=O)COc1ccc(Cl)cc1Cl,inactive; multisex inactive
6,CC(C)(c1ccc(O)cc1)c1ccc(O)cc1,inactive; multisex inactive; multispecies inactive
7,Clc1ccc(Cl)cc1,active; multisite active; multisex active; multispecies active
8,c1ccc(-c2ccccc2)cc1,inactive; multisex inactive
9,Nc1ccc2nc3ccccn3c2n1,active; multisite active; multisex active; multispecies active
10,Cc1ccc2c(-c3cccc(O)c3)nc(=O)n(C(C)C)c2c1,inactive; multisex inactive; multispecies inactive
11,O=CNc1nc(-c2ccc([N+](=O)[O-])o2)cs1,active; multisite active; multisex active; multispecies active
12,O=Nc1ccc(Nc2ccccc2)cc1,active; multispecies active
13,O=[N+]([O-])c1ccc2ncccc2c1,inactive; multisex inactive
14,Cc1ccc2c(-c3ccccc3)nc(=O)n(C(C)C)c2c1,inactive; multisex inactive
15,Cc1ccccc1N=O,active; multisite active
16,CC(COc1ccc(C(C)(C)C)cc1)OS(=O)OCCCl (stereo not drawn),active; multispecies active
17,Brc1cc(Br)c(-c2c(Br)c(Br)c(Br)c(Br)c2Br)c(Br)c1Br,active; multisex active
18,C=CCOc1ccccc1OCC(O)CNC(C)C (stereo not drawn),inactive; multisex inactive; multispecies inactive
19,CCN=c1cc2oc3cc(NCC)c(C)cc3c(-c3ccccc3C(=O)OCC)c-2cc1C,inactive; multisex inactive; multispecies inactive
20,Cc1cc(O)c(C(C)(C)C)cc1Sc1cc(C(C)(C)C)c(O)cc1C,inactive; multisex inactive; multispecies inactive
21,O=P(O)(O)O,inactive; multisex inactive
22,OCCO,inactive; multisex inactive
23,N#CN=C(N)N,inactive; multisex inactive
24,CCN(C#N)N=O,active; multisex active
25,CC(=O)O[C@H]1CC[C@@]2(C)C(=CC[C@@H]3[C@@H]2CC[C@]2(C)C(=O)CC[C@@H]32)C1,active; multisex active

row,Compound,outcome
1,C[C@]12CC[C@@H]3c4ccc(OC(=O)Cc5ccc(N(CCCl)CCCl)cc5)cc4CC[C@H]3[C@@H]1CC[C@@H]2OC(=O)Cc1ccc(N(CCCl)CCCl)cc1,active; multisite active; multisex active
2,O=[N+]([O-])c1ccc2c3c(cccc13)CC2,active; multisite active; multisex active; multispecies active
3,CC1CN(N=O)C(=O)NC1=O (stereo not drawn),inactive; multisex inactive
4,COCCl,active; multispecies active
5,C=Cc1ccccc1,active; multisite active; multisex active; multispecies active
6,FCCl,active; multisex active
7,C1COCCO1,active; multisite active; multisex active; multispecies active
8,N[C@@H](Cc1ccc(N(CCCl)CCCl)cc1)C(=O)O,active; multisite active; multisex active; multispecies active
9,CN[C@H]1CC[C@@H](c2ccc(Cl)c(Cl)c2)c2ccccc21,inactive; multisex inactive; multispecies inactive
10,NC(=O)c1ccncc1,inactive; multisex inactive
11,C[C@@H]1Cc2c(Cl)cc(C(=O)N[C@@H](Cc3ccccc3)C(=O)O)c(O)c2C(=O)O1,active; multisite active; multisex active; multispecies active
12,Nc1ccc(-c2ccccc2)cc1,active; multisite active; multisex active
13,C=CCOC(=O)c1ccccc1C(=O)OCC=C,inactive; multisex inactive; multispecies inactive
14,C=CN1CCCC1=O,active; multisite active; multisex active
15,CCCCCN(N=O)C(N)=O,active; multisite active; multisex active
16,CCCCC(CC)COC(=O)CCCCC(=O)OCC(CC)CCCC (stereo not drawn),active; multisex active
17,CC(=O)c1ccc(S(=O)(=O)NC(=O)NC2CCCCC2)cc1,inactive; multisex inactive; multispecies inactive
18,COc1ccc(C(Cl)=C(c2ccc(OC)cc2)c2ccc(OC)cc2)cc1,inactive; multisex inactive
19,CN(C)Nc1nc(-c2ccc([N+](=O)[O-])o2)cs1,active; multisite active
20,Cc1cc(O)cc(C)c1N(C)C,inactive; multisex inactive
21,COc1cc(/C=C/C(=O)CC(=O)/C=C/c2ccc(O)c(OC)c2)ccc1O,inactive; multisex inactive; multispecies inactive
22,CCOP(=S)(OCC)Oc1nc(Cl)c(Cl)cc1Cl,inactive; multisex inactive
23,CNC(=O)Oc1cccc2c1OC(C)(C)C2,inactive; multisex inactive
24,CSCCC(N)C(=O)O (stereo not drawn),inactive; multispecies inactive
25,CCN(CC)CCCNC(=O)Cn1ncc(-c2ccccc2)c1-c1ccccc1,inactive; multisex inactive

row,Compound,outcome
1,S=C(SSSSSSC(=S)N1CCCCC1)N1CCCCC1,inactive; multisex inactive
2,CN(C)CCC(c1ccc(Cl)cc1)c1ccccn1 (stereo not drawn),inactive; multisex inactive; multispecies inactive
3,O.O=S(=O)([O-])[O-].[Mn+2],inactive; multisex inactive; multispecies inactive
4,C[C@H](CCc1ccccc1)NC[C@H](O)c1ccc(O)c(C(N)=O)c1,inactive; multisex inactive
5,Cc1cnc2ccc3c(nc(N)n3C)c2n1,active; multisite active; multisex active; multispecies active
6,C1C2OC2C2C1C1CC2C2OC12 (stereo not drawn),inactive; multisex inactive; multispecies inactive
7,C=Cc1cccc[n+]1[O-],inactive; multispecies inactive
8,NC(=O)NNc1ccccc1,active; multisex active
9,CCN(N=O)C(N)=O,active; multisite active; multisex active
10,Cc1c(N)nc(C)c2c1[nH]c1ccccc12,active; multisex active; multispecies active
11,Clc1ccc2c(c1)Oc1ccc(Cl)cc1O2,inactive; multisex inactive; multispecies inactive
12,CC(=O)OC/C=C(C)/C=C/C=C(C)/C=C/C1=C(C)CCCC1(C)C,active; multisex active
13,CNc1ccc(N(CCO)CCO)cc1[N+](=O)[O-],active; multisite active; multisex active; multispecies active
14,CN1C(=O)C(O)N=C(c2ccccc2)c2cc(Cl)ccc21 (stereo not drawn),inactive; multisex inactive
15,O=C(c1ccccc1)C(O)c1ccccc1 (stereo not drawn),inactive; multisex inactive; multispecies inactive
16,O.O.O.O.O=C([O-])CC(O)(CC(=O)[O-])C(=O)[O-].[Fe+3],inactive; multisex inactive
17,C=CC(=O)OCC,active; multisex active; multispecies active
18,O=NN1CCCN(N=O)CC1,active; multisite active
19,CCCCN(CCCC)N=O,active; multisite active; multispecies active
20,Clc1ccc(-c2ccc(Cl)c(Cl)c2Cl)c(Cl)c1Cl,active; multisite active; multisex active
21,S=c1nc[nH]c2nc[nH]c12,inactive; multisex inactive
22,N[C@@H](CCC(=O)NNc1ccc(CO)cc1)C(=O)O,inactive; multisex inactive
23,C/C=C/C=C/C(=O)O,inactive; multisex inactive; multispecies inactive
